Measurements taken from US10544156B2, “Hemi-synthetic trilobine analogs for use as a drug” (PIERRE FABRE MEDICAMENT, priority 2015, dated 2020).
Like-named read-outs stand apart in the source and are kept apart here.

Molecular target: T1, human C-terminal DNMT3A (623-908a.a.) (Homo sapiens, UniProt Q9Y6K1)
T1 construct: The human C-terminal DNMT3A (623-908a.a.); made in house
Assay: hDNMT3A assay (restriction-based fluorescence assay)
Format: biochemical
Details: for inhibition at 10 µM: read-out: hDNMT 3A inhibition, Inhibition (%) 10 μM; for inhibition at 32 µM: read-out: hDNMT 3A inhibition, Inhibition (%) 32 μM
Excerpt: hDNMT3A enzyme inhibition was adapted from the restriction-based fluorescence assay protocol as described in the literature (Ceccaldi et al. Chem Bio Chem 2011, 12, 1337-1345). Briefly, a 5′-labelled biotin oligonucleotide is hybridized to its complementary strand labelled with 6-carboxyfluorescein at the 3′-end into a 384 well microplate (black Optiplates; Perkin Elmer) pre-coated with avidin. The duplex contains a unique CpG site overlapping with a restriction site of a methylation sensitive restriction enzyme. The human C-terminal DNMT3A (623-908a.a.), produced as described in (Gros et al. Nucl. Acids Res. 2013, 41(19):e185), was added in each well (200 ng/well) and mixed with the chemical compounds at desired concentrations and freshly prepared SAM (20 μM final concentration) to start the reaction in a total volume of 50 μL. After 1 hour incubation at 37° C. each well were washed three times with PBS, Tween-20 0.05%, NaCl (500 mM) and three more times with PBST. Specific fluorescent signals were detected with the methylation-sensitive restriction enzyme HpyCH4IV (NEB) as described and measured on a Perkin Elmer Envision detector. The percentage of inhibition is reported. The formula used to calculate the percentage of inhibition is [(X−Y)/X]×100, where X is the signal determined in the absence of the inhibitor and Y is the signal obtained in the presence of the inhibitor. The concentration at which 50% of efficacy of inhibition is observed (EC50) was determined by analysis of a concentration range of the tested compound in triplicates. The non-linear regression fittings with sigmoidal dose-response (variable slope) were performed with GraphPad Prism 4.03 (GraphPad Software).

[1] = concentration at which 50% of efficacy of inhibition is observed, read-out: EC50 (μM), hDNMT 3A inhibition
[2] = interval line below the EC50 of the same compound, read-out: EC50 (μM), range given

T1 sequence (Q9Y6K1 627-912 limits assumed): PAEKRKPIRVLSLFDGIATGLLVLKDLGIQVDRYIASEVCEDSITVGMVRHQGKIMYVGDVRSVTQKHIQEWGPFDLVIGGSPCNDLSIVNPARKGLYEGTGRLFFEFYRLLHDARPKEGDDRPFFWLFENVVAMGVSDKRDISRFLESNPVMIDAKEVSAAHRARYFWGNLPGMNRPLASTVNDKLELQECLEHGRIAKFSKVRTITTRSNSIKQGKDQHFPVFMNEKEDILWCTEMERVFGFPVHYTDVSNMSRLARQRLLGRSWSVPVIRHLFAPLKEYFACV

| SMILES | inhibition at 10 µM [%] | inhibition at 32 µM [%] | EC50 [1] [µM] | EC50 [2] [µM] |
| --- | --- | --- | --- | --- |
| CNC(=S)N1CCc2cc3c4cc2[C@@H]1Cc1ccc(OC)c(c1)Oc1ccc(cc1)C[C@H]1c2c(cc(OC)c(c2O4)O3)CCN1C(=S)NC [Product 47] | 10 | 40 | – | – |
| COc1ccc2cc1Oc1ccc(cc1)C[C@H]1c3c(cc(OC)c4c3Oc3cc5c(cc3O4)CCN(C)[C@H]5C2)CCN1C#N [Product 15] | 46 | 50 | – | – |
| CCN(CC)CCCNC(=O)N1CCc2cc3c4cc2[C@@H]1Cc1ccc(OC)c(c1)Oc1ccc(cc1)C[C@H]1c2c(cc(OC)c(c2O4)O3)CCN1C [Product 50] | 69 | 91 | 2.06 | 1.28 to 3.31 |
| CNC(=O)N1CCc2cc3c4cc2[C@@H]1Cc1ccc(OC)c(c1)Oc1ccc(cc1)C[C@H]1c2c(cc(OC)c(c2O4)O3)CCN1C [Product 45] | 31 | 73 | – | – |
| COc1ccc2cc1Oc1ccc(cc1)C[C@H]1c3c(cc(OC)c4c3Oc3cc5c(cc3O4)CCN(CC#N)[C@H]5C2)CCN1C [Product 20] | 50 | 66 | – | – |
| COc1ccc2cc1Oc1ccc(cc1)C[C@H]1c3c(cc(OC)c4c3Oc3cc5c(cc3O4)CCN(C)[C@H]5C2)CCN1S(C)(=O)=O [Product 13] | 39 | 45 | – | – |
| COc1ccc2cc1Oc1ccc(cc1)C[C@H]1c3c(cc(OC)c4c3Oc3cc5c(cc3O4)CCN(C)[C@H]5C2)CCN1C(=O)OCCCn1cnc2c(N)ncnc21 [Product 19] | 67 | 71 | – | – |
| COc1ccc2cc1Oc1ccc(cc1)C[C@H]1c3c(cc(OC)c4c3Oc3cc5c(cc3O4)CCN(C)[C@H]5C2)CCN1CCCCn1cnc2c(N)ncnc21 [Product 27] | 21 | 67 | – | – |
| COc1ccc2cc1Oc1ccc(cc1)C[C@H]1c3c(cc(OC)c4c3Oc3cc5c(cc3O4)CCN(C)[C@H]5C2)CCN1C(=O)OCCCCn1cnc2c(N)ncnc21 [Product 18] | 66 | 66 | – | – |
| COc1ccc2cc1Oc1ccc(cc1)C[C@H]1c3c(cc(OC)c4c3Oc3cc5c(cc3O4)CCN(C)[C@H]5C2)CCN1CCC#N [Product 16] | 56 | 77 | – | – |
| CNC(=O)N1CCc2cc3c4cc2[C@@H]1Cc1ccc(OC)c(c1)Oc1ccc(cc1)C[C@H]1c2c(cc(OC)c(c2O4)O3)CCN1C(=O)NC [Product 43] | 24 | 49 | – | – |
| COc1ccc2cc1Oc1ccc(cc1)CC1c3c(cc(OC)c4c3Oc3cc5c(cc3O4)CCN(C)[C@H]5C2)CCN1C=O (stereo partly shown) [Product 10] | 17 | 72 | – | – |
| COc1ccc2cc1Oc1ccc(cc1)CC1c3c(cc(OC)c4c3Oc3cc5c(cc3O4)CCN(C)[C@H]5C2)CCN1C(=O)CCCl (stereo partly shown) [Product 32] | 57 | 82 | 5.34 to 6.87 | – |
| COc1ccc2cc1Oc1ccc(cc1)C[C@H]1c3c(cc(OC)c4c3Oc3cc5c(cc3O4)CCN(C)[C@H]5C2)CCN1CCCn1cnc2c(N)ncnc21 [Product 28] | 18 | 60 | – | – |

Other lines, results leading:

| inhibition at 10 µM [%] | inhibition at 32 µM [%] | EC50 [1] [µM] | EC50 [2] [µM] | SMILES |
| --- | --- | --- | --- | --- |
| 43 | 77 | – | – | COc1ccc2cc1Oc1ccc(cc1)C[C@H]1c3c(cc(OC)c4c3Oc3cc5c(cc3O4)CCN(C)[C@H]5C2)CCN1C(N)=O [Product 11] |
| 42 | 77 | – | – | COc1ccc2cc1Oc1ccc(cc1)C[C@H]1c3c(cc(OC)c4c3Oc3cc5c(cc3O4)CCN(CCCn3cnc4c(N)ncnc43)[C@H]5C2)CCN1C [Product 24] |
| 78 | 93 | 2.67 to 3.8 | – | CCN(CC)CCCNC(=S)N1CCc2cc(OC)c3c4c2[C@@H]1Cc1ccc(cc1)Oc1cc(ccc1OC)C[C@H]1c2cc(c(cc2CCN1C)O3)O4 [Product 12] |
| 60 | 75 | 6.1 | 3.72 to 10 | CCN(CC)CCCNC(=O)N1CCc2cc(OC)c3c4c2[C@@H]1Cc1ccc(cc1)Oc1cc(ccc1OC)C[C@H]1c2cc(c(cc2CCN1C)O3)O4 [Product 49] |
| 32 | 82 | – | – | COc1ccc2cc1Oc1ccc(cc1)C[C@H]1c3c(cc(OC)c4c3Oc3cc5c(cc3O4)CCN(CC#N)[C@H]5C2)CCN1CC#N [Product 21] |
| 46 | 72 | – | – | COc1ccc2cc1Oc1ccc(cc1)C[C@H]1c3c(cc(OC)c4c3Oc3cc5c(cc3O4)CCN(CCCCn3cnc4c(N)ncnc43)[C@H]5C2)CCN1C [Product 25] |
| 2 | 69 | – | – | CNC(=O)N1CCc2cc(OC)c3c4c2[C@@H]1Cc1ccc(cc1)Oc1cc(ccc1OC)C[C@@H]1NCCc2cc(c(cc21)O4)O3 [Product 51] |
| 69 | 79 | – | – | COc1ccc2cc1Oc1ccc(cc1)C[C@H]1c3c(cc(OC)c4c3Oc3cc5c(cc3O4)CCN(C)[C@H]5C2)CCN1CC#N [Product 17] |
| 43 | 79 | – | – | C=CC(=O)N1CCc2cc(OC)c3c4c2C1Cc1ccc(cc1)Oc1cc(ccc1OC)C[C@H]1c2cc(c(cc2CCN1C)O3)O4 (stereo partly shown) [Product 31] |
| 0 | 32 | – | – | COc1cc2c3c4c1Oc1cc5c(cc1O4)[C@H](Cc1ccc(OS(=O)(=O)C(F)(F)F)c(c1)Oc1ccc(cc1)C[C@@H]3N(C)CC2)N(C)CC5 [Product 54] |
| 60 | 64 | – | – | COc1ccc2cc1Oc1ccc(cc1)C[C@H]1c3c(cc(OC)c4c3Oc3cc5c(cc3O4)CCN(CCC#N)[C@H]5C2)CCN1C [Product 22] |
| 93 | 96 | 1.91 | 1.15 to 3.18 | CNC(=S)N1CCc2cc(OC)c3c4c2[C@@H]1Cc1ccc(cc1)Oc1cc(ccc1OC)C[C@H]1c2cc(c(cc2CCN1C)O3)O4 [Product 14] |
| 66 | 88 | 4.19 to 9.36 | – | COc1ccc2cc1Oc1ccc(cc1)CC1c3c(cc(OC)c4c3Oc3cc5c(cc3O4)CCN(C)[C@H]5C2)CCN1C(=O)C1CCC(CN2C(=O)C=CC2=O)CC1 (stereo partly shown) [Product 30] |
| 32 | 87 | – | – | COc1ccc2cc1Oc1ccc(cc1)CC1c3c(cc(OC)c4c3Oc3cc5c(cc3O4)CCN(C)[C@H]5C2)CCN1C(=O)/C=C/CN(C)C (stereo partly shown) [Product 33] |
| 7 | 52 | – | – | CNC(=S)N1CCc2cc3c4cc2[C@@H]1Cc1ccc(OC)c(c1)Oc1ccc(cc1)C[C@H]1c2c(cc(OC)c(c2O4)O3)CCN1C [Product 46] |
